Results from patent US20240294489A1 (Captor Therapeutics S.A., priority 2020, published 2024).
pIC50: −log10 of the molar value.

Columns and labels:
Assay type in all cases: cell-based
PL-21 = experiment: Cell viability, additional cell lines (CellTiter-Glo), PL-21; conditions: PL-21, 72 h; read-out: Absolute IC50
Experimental: (§1) Tumor cells are grown at 37° C. in a humidified atmosphere with 5% CO2 in RPMI 1640 medium, supplemented with 10% (v/v) fetal calf serum and 50 μg/ml gentamicin for up to 20 passages, and are passaged once or twice weekly.
(§2) Cells are harvested from exponential phase cultures, counted and plated in 96 well flat-bottom microtiter plates at a cell density depending on the cell line's growth rate (4,000-20,000 cells/well depending on the cell line's growth rate, up to 60,000 for hematological cancer cell lines) in RPMI 1640 medium supplemented with 10% (v/v) fetal calf serum and 50 μg/ml gentamicin (140 μl/well). Cultures are incubated at 37° C. and 5% CO2 in a humidified atmosphere. After 24 h, 10 μl of test compounds or control medium are added and left on the cells for another 72 h. Compounds are serially diluted in DMSO, transferred in cell culture medium, and added to the assay plates by using a Tecan Freedom EVO 200 robotic platform. The DMSO concentration is kept constant at 0.3% v/v across the assay plate. Viability of cells is quantified by the CellTiter-Glo® cell viability assay (Promega G8462). After incubation of cells, 100 μl of CellTiter-Glo® One Solution Assay reagent are added to each well. Plates are shaken for 2 minutes to induce cell lysis and incubated for 20 minutes prior to reading luminescence (LU) by using the EnVision® Xcite multilabel plate reader (Perkin Elmer). […]

SU-DHL-1 = experiment: Cell viability, additional cell lines (CellTiter-Glo), SU-DHL-1; conditions: Homo sapiens, SU-DHL-1, 72 h; read-out: Absolute IC50
Experimental: as §1, §2

EOL-1 = experiment: Cell viability, additional cell lines (CellTiter-Glo), EOL-1; conditions: Homo sapiens, EOL1; EOL-1, 72 h; read-out: Absolute IC50
Experimental: as §1, §2

IM-9 = experiment: Cell viability, additional cell lines (CellTiter-Glo), IM-9; conditions: Homo sapiens, IM-9, 72 h; read-out: Absolute IC50
Experimental: as §1, §2

H929 cells = experiment: Cell viability CTG assay, H929; conditions: Homo sapiens, NCI-H929; H929, 72 h, 0.001-50 μM, numeric values; read-out: Geomean absolute IC50 by molecule, 72 H
Procedure, shortened: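 Cells exposed to compound at 0.25% v/v DMSO for 72 h (37° C., 5% CO2). ATP quantified by CellTiter-Glo luminescence, normalized to DMSO control. Absolute IC50 (T/C=50%) by non-linear regression on duplicate means; geometric mean used for averages.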

U-266 = experiment: Cell viability, additional cell lines (CellTiter-Glo), U-266; conditions: Homo sapiens, U-266, 72 h; read-out: Absolute IC50
Experimental: as §1, §2

TMD8 = experiment: Cell viability, additional cell lines (CellTiter-Glo), TMD8; conditions: Homo sapiens, TMD8, 72 h; read-out: Absolute IC50
Experimental: as §1, §2

HL-60 = experiment: Cell viability, additional cell lines (CellTiter-Glo), HL-60; conditions: Homo sapiens, HL-60, 72 h; read-out: Absolute IC50
Experimental: as §1, §2

U-937 = experiment: Cell viability, additional cell lines (CellTiter-Glo), U-937; conditions: Homo sapiens, U-937, 72 h; read-out: Absolute IC50
Experimental: as §1, §2

SNU-398 cells = experiment: Cell viability CTG assay, SNU-398; conditions: Homo sapiens; SNU-398, 72 h, 0.001-50 μM, FIG. 6C
Experimental: The effect of various compounds of the invention and various reference compounds on cell viability in various cell lines was investigated, using the Cell Viability—CTG Assay Protocol below. Hep3B, Kelly, H929, KG-1 and SNU-398 cells were maintained in respective cell medium (see Table 8, below). The cells were seeded on the 96-well or 384-white plates, and the compounds to be tested were added at the desired concentration range. Compounds are diluted in DMSO, and the DMSO concentration is kept constant at 0.25% v/v across the assay plate. After 72 h incubation (37° C., 5% CO2), CellTiter-Glo® Reagent (Promega/G7570) was added to the wells. Plates are shaken for 4 minutes and incubated for 8 minutes in the dark prior to reading luminescence (LU) by using the CLARIOstar Multimode Plate Reader. The signal is proportional to the amount of ATP, which is directly proportional to the number of cells present in the culture.
Luminescence (RLU) values were normalized to DMSO control. Dose response is assessed by non-linear regression and IC50 calculation with the average of technical duplicate of percentage inhibition. IC50 values are reported as absolute IC50 values, being the concentration of test compound at the intersection of the concentration-response curves with T/C=50%. For calculation of mean IC50 values the geometric mean is used.

NCI-H929 = experiment: Cell viability, additional cell lines (CellTiter-Glo), NCI-H929; conditions: Homo sapiens, NCI-H929, 72 h; read-out: Absolute IC50
Experimental: as §1, §2

Ikaros (IKZF1) = target: T1, Ikaros (IKZF1) (Homo sapiens, UniProt Q13422+Q96SW2); experiment: Ikaros degradation assay, H929 cell line; conditions: NCI-H929; H929 cells, 10 uM, 24 h, numeric values; read-out: % of IKZF1 protein reduction
T1 construct: Ikaros degradation in the H929 cell line was investigated; endogenous in cells; host or cells: H929
T1 sequence (Q13422 whole entry): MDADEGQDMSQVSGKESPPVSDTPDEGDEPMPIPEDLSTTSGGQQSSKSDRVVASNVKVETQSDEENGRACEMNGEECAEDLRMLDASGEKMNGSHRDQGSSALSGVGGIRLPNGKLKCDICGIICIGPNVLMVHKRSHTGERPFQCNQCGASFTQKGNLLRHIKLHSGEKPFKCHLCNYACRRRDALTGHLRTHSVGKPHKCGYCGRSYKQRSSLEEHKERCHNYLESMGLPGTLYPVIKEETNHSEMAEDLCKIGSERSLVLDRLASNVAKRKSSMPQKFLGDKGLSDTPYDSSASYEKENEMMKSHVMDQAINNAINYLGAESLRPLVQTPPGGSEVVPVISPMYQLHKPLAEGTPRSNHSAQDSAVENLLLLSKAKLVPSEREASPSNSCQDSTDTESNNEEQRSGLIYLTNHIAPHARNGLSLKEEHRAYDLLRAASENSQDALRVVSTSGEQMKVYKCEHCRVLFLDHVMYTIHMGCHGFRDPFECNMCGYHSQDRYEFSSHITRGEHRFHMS
T1 sequence (Q96SW2 whole entry): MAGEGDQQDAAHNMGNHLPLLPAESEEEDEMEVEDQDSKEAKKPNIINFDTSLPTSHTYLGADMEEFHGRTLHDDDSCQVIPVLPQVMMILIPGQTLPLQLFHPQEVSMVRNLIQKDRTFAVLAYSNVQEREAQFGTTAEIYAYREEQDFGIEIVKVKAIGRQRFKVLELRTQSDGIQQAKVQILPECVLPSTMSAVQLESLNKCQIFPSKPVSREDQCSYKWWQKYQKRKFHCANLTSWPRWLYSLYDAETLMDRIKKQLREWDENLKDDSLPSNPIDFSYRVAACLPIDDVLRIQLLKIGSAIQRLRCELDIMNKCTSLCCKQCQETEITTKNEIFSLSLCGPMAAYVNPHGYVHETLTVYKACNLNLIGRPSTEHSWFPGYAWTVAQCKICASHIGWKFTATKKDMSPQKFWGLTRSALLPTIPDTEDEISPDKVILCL
T1 sequence (Q16531 whole entry partner): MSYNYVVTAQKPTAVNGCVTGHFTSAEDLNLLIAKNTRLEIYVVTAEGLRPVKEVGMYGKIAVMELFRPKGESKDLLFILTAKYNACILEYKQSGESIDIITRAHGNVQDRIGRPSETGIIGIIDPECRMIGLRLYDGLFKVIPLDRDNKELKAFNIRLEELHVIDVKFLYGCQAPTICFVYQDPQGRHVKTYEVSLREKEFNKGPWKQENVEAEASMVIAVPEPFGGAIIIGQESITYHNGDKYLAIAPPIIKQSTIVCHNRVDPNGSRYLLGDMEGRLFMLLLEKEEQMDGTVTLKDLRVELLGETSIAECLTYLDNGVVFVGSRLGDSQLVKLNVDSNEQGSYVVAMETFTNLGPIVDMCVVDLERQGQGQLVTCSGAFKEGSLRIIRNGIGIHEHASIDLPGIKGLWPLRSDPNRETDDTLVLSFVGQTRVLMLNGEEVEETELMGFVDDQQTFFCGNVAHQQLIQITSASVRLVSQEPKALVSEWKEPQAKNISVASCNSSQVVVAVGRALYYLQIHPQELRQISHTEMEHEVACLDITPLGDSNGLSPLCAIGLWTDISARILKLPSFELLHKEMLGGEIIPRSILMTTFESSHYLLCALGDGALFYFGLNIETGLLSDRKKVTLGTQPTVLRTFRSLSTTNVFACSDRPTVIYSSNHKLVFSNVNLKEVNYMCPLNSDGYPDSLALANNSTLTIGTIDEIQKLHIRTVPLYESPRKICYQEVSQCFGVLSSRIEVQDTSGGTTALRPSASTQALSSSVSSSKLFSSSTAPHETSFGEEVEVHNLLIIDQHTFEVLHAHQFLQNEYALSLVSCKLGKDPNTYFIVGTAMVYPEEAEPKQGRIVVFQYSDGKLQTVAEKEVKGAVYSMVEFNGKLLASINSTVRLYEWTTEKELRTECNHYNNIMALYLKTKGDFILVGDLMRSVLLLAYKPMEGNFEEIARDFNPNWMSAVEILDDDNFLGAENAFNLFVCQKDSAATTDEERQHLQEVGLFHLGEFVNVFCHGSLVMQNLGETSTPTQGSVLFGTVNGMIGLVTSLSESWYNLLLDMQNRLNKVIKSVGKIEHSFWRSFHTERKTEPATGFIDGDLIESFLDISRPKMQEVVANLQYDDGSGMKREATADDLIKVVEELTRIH
Procedure, shortened: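 Cells were exposed to test compounds over a concentration range for 24 h at 37° C, 5% CO2, then lysed in RIPA buffer. Equal protein (BCA) was resolved by SDS-PAGE and immunoblotted. Band densitometry gave the protein levels used for evaluation.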

OCI-AML2 = experiment: Cell viability, additional cell lines (CellTiter-Glo), OCI-AML2; conditions: Homo sapiens, OCI-AML2, 72 h; read-out: Absolute IC50
Experimental: as §1, §2

Kasumi-1 = experiment: Cell viability, additional cell lines (CellTiter-Glo), Kasumi-1; conditions: Homo sapiens; Kasumi-1, 72 h; read-out: Absolute IC50
Experimental: as §1, §2

OPM-2 = experiment: Cell viability, additional cell lines (CellTiter-Glo), OPM-2; conditions: Homo sapiens, OPM-2, 72 h; read-out: Absolute IC50
Experimental: as §1, §2

LP-1 = experiment: Cell viability, additional cell lines (CellTiter-Glo), LP-1; conditions: Homo sapiens, LP-1, 72 h; read-out: Absolute IC50
Experimental: as §1, §2

NOMO-1 = experiment: Cell viability, additional cell lines (CellTiter-Glo), NOMO-1; conditions: Homo sapiens, NOMO-1, 72 h; read-out: Absolute IC50
Experimental: as §1, §2

For `O=C1CCC(N2Cc3cc(CNC(=O)C(F)(F)c4ccc(Cl)cc4)ccc3C2=O)C(=O)N1` (centres unmarked) [CC-90009, reference compound], the pIC50 (PL-21) was 8.00, the pIC50 (SU-DHL-1) was 6.82 and the pIC50 (EOL-1) was 8.70. The pIC50 (IM-9) was 7.07, the pIC50 (H929 cells) was 6.72 and the pIC50 (U-266) was 7.25. For the same compound, the pIC50 (TMD8) was 6.58, the pIC50 (HL-60) was 8.52 and the pIC50 (U-937) was 7.11. For the same compound, the pIC50 (SNU-398 cells) was less than 5.00, the pIC50 (NCI-H929) was 6.40 and the inhibition at 10 µM (Ikaros (IKZF1)) was 33%. The pIC50 (OCI-AML2) was 7.74, the pIC50 (Kasumi-1) was 7.46 and the pIC50 (OPM-2) was 7.13. The pIC50 (LP-1) was 7.55 and the pIC50 (NOMO-1) was 7.40.
